A short description of this data set: Human HepG2 cell viability assay in 384 well format. In kind it is toxicity, cell-based. Particulars: HepG2 cells, read-out: Inhibition. On the set-up: dose 125 nL, time 70.5 hour; cytotoxicity at 70.5 h: concentration not given beside the values.

SMILES strings stand for the structures.

As to `O=c1oc(-c2cccs2)nn1CC(O)c1ccccc1` (stereo not given), the cytotoxicity at 70.5 h was -13.3%.
Next, `CCOc1ncccc1CNC(=O)N1CCCC1c1ccncc1` (stereo not given): -8.99%; `CCNC(=O)NC(=O)CSC(C)c1ccccc1F` (stereo not given): -9.82%.
For the molecule `CCOc1cccc(C(C)NCc2ccc(OC)c(OC)c2OC)c1` (stereo not given), the cytotoxicity at 70.5 h was 6.82%.
To `CCNC(=O)NC(=O)CSC(C)c1c(F)cccc1F` (stereo not given) belongs 10.3%.
With `CCN(CC)C(=O)CCNC(=O)Cc1nc(-c2ccco2)oc1C`, the cytotoxicity at 70.5 h was 4.78%.
To `N#Cc1cn(CC(=O)NC2CC2)c2ccc(Br)cc2c1=O` belongs -7.46%.
`CCN(CC(=O)NC)C(=O)Cc1nc(-c2ccco2)oc1C`: the cytotoxicity at 70.5 h is -7.15%.
In the case of `CCc1nc(CCNC(=O)Nc2ccc(C(=O)NC)cc2C)cs1`, the cytotoxicity at 70.5 h turned out to be 13.7%.
To `O=C(O)c1ccn(-c2ccccc2NS(=O)(=O)c2ccccc2)n1` belongs -0.995%; to `Cc1cc(S(=O)(=O)N2CCCc3cc(F)cc(F)c32)sc1C(=O)O`, 11.1%.
With `O=C(NC1(c2nnn(Cc3ccncc3)n2)CCCC1)c1ccccc1`, the cytotoxicity at 70.5 h was -1.85%.
Next, `CSC(C)(C)CNC(=O)NC1CCSCC1`: -6.55%.
Take `Cc1n[nH]c(C2CN(CC(=O)NCc3ccco3)CCO2)n1` (stereo not given): the cytotoxicity at 70.5 h amounted to 15.9%.
With `CSCC(=O)N1CCCC1c1noc(C2CC2)n1` (stereo not given), the cytotoxicity at 70.5 h is -4.73%.
For `O=C(NCCCn1ccnc1)N1CCCC1c1ccncc1` (stereo not given), the cytotoxicity at 70.5 h was -1.54%.
Consider `CC(C)(C)OC(=O)NC(C)(C)c1noc(CN2CCCCC2)n1`, for which the cytotoxicity at 70.5 h is -3.07%.
Regarding `O=C(CCNS(=O)(=O)c1ccccc1)NCc1ccoc1`, the cytotoxicity at 70.5 h was -9.84%.
With `CCS(=O)(=O)c1ccc(N2CCC(NC(C)=O)CC2)cc1`, the cytotoxicity at 70.5 h is -5.9%.
Next, `COC1CCN(C(=O)c2c(Cl)c3ccccc3n2C)CC1`: -9.88%; `CCNC(=O)c1cnc(Cc2ccc(F)cc2)s1`: -6.25%.
Regarding `COc1cccc(S(=O)(=O)CCN2CCC3(CC2)OCCO3)c1`, the cytotoxicity at 70.5 h was -18.5%.
Next, `CCCC(=O)NCc1cc(Br)c(OC)c(OC)c1`: -6.96%; `Cc1nc2c(c(C)c1CC(=O)Nc1ccc(Cl)cc1)c(=O)[nH]n2C`: -3.48%; `c1cnn(CC2CCCCN2c2ncnc3sccc23)c1` (stereo not given): -6.33%.
To `Cc1cnn(CCNCc2ccc(OCc3csc(C)n3)cc2)c1` belongs -4.31%; to `O=C(NCCc1cccc(O)c1)NC1CCN(c2ccccc2)C1=O` (stereo not given), 1.16%.
Next, `O=C(O)c1ccc(F)c(S(=O)(=O)Nc2ccc(-n3cccn3)c(Cl)c2)c1`: -6.87%.
As to `CCCC(NC(=O)c1ccc(OC)cc1F)c1nnn[nH]1` (stereo not given), the cytotoxicity at 70.5 h is -3.7%.
Next, `CCCC(NC(=O)c1cc(C)ccc1C)c1nnn[nH]1` (stereo not given): 13.6%; `COCC(=O)N1CCC2(CC1)CN(c1ccsc1)C(=O)CO2`: -8.62%; `O=C(c1ccsc1)N1CCN2C[C@H](OCc3ccccn3)C[C@H]2C1`: -10.1%.
To `Cc1cccc(CN2CCn3c(C(=O)N(C)C)cnc3C2)c1` belongs -4.36%; to `O=C(C1CCOCC1)N1CCC2(CC1)CN(c1ccsc1)C(=O)CO2`, -6.23%.
To `Cc1noc(C)c1CN1C[C@@H]2COC[C@@H](CC(=O)N3CCCO3)[C@@H]2C1` belongs -6.49%; to `Cc1noc(C)c1CN1C[C@@H]2COC[C@H](C(=O)N3CCCO3)[C@@H]2C1`, 31.1%.
Take `O=C(c1ccco1)N1CCO[C@@H]2CN(c3ccccc3)CC[C@@H]2C1`: the cytotoxicity at 70.5 h was determined as 29.2%.
To `Cn1cccc1C(=O)NCc1cn2c(n1)CN(CC1CCOC1)CC2` (stereo not given) belongs 17.2%; to `O=C([C@H]1CN(Cc2nccs2)C[C@H]2OCC[C@@H]12)N1CCCC1`, 10.2%; to `Cc1csc(CN2C[C@@H]3COC[C@]3(C(=O)NCc3ccco3)C2)n1`, 14.6%.
With `CC(=O)NCC(=O)N1CCN(C)c2ncccc2C1`, the cytotoxicity at 70.5 h is -11.3%.
In the case of `Cc1cc(C(=O)N2CC[C@H]3[C@@H]2CCC(=O)N3c2ccccc2)no1`, the cytotoxicity at 70.5 h is -8.05%.
On to `CC(C)CCN1CCc2nc(N3CCOCC3)nc(NC(C)C)c2C1`, for which the cytotoxicity at 70.5 h was -16.5%.
Next, `c1cc(CN2CCCn3nnc(COCC4CC4)c3C2)ccn1`: -15.6%; `CN(C)C(=O)CN1CCC2(CCCN(Cc3ccsc3)C2)C1=O` (stereo not given): -15.6%; `c1cnc(N2CCOCC3(CNCCO3)C2)nc1` (stereo not given): 15.5%.
On to `Cn1cccc1C(=O)NCc1cn2c(n1)CN(C(=O)c1ccsc1)CC2`, for which the cytotoxicity at 70.5 h was -8.13%.
To `CN1CC2(COCCN(c3ncccn3)C2)OCC1=O` (stereo not given) belongs -11.5%; to `CCCN1CCc2nc(N3CCOCC3)nc(NC(C)C)c2C1`, -8.9%.
In the case of `Cc1nc(N2CCOCC2)nc2c1CN(CC(=O)N(C)C)CC2`, the cytotoxicity at 70.5 h was -13.5%.
To `COCC1CN(C(=O)c2cccs2)Cc2nccn2C1` (stereo not given) belongs -8.64%; to `COCCC(=O)N1CCC2(CCN(Cc3cccc(F)c3)C2)C1` (stereo not given), 24.8%; to `Fc1cnc(NCC2Cn3nnc(-c4ccccc4)c3CO2)nc1` (stereo not given), 24.4%.
For `Fc1cccc(-c2nnn3c2COC(CNc2ncccn2)C3)c1` (stereo not given), the cytotoxicity at 70.5 h is 26.8%.
Next, `c1csc(CN2CC[C@H]3O[C@@H](COCC4CC4)CC[C@H]32)c1`: 27%; `CCCS(=O)(=O)NC1CCc2c(ccc(=O)n2CC2CC2)C1` (stereo not given): -8.69%; `COCCN1CCn2cc(CN(C)Cc3ccco3)nc2C1`: -7.59%.
To `c1ccc(-c2nnn3c2COC(CNCC2CC2)C3)cc1` (stereo not given) belongs -0.253%; to `CN(C)C(=O)c1cnc2n1CCN(Cc1cccc(C#N)c1)C2`, -7.44%; to `COCCN1C(=O)CC[C@@H]2[C@H]1CCN2Cc1cccc(C#N)c1`, -11.2%.
On to `Cc1cc(CN2C[C@@H]3COC[C@@H](C(=O)N4CCCCO4)[C@@H]3C2)no1`, for which the cytotoxicity at 70.5 h turned out to be 20.1%.
Turning to `CN(C)[C@@H]1CCN(C(=O)c2cccn2C)[C@H]1Cc1cnn(C)c1`, the cytotoxicity at 70.5 h is -11.3%.
Next, `Cc1cc(CN2C[C@@H]3COC[C@H](C(=O)N4CCCCO4)[C@@H]3C2)no1`: -11.3%; `CN(C)[C@@H]1CCN(C(=O)c2cccc(C#N)c2)[C@H]1Cc1cnn(C)c1`: -8.57%; `Cc1ccccc1C(=O)N1CC[C@@H](N(C)C)[C@@H]1Cc1cnn(C)c1`: 25.4%.
To `CCN1C[C@H]2[C@@H](C1)N(S(=O)(=O)c1ccccc1F)CC[C@H]2OC` belongs -3.89%.
To `Cc1noc(C)c1CN1C[C@@H]2COC[C@@H](CC(=O)N3CCCCO3)[C@@H]2C1` belongs -6.43%; to `Cc1occc1C(=O)N1CCO[C@H]2[C@H](Oc3cccnc3)CC[C@@H]21`, 14.6%.
On to `O=C(O)CCC(=O)N1CCN(CC2CC2)c2ncccc2C1`, for which the cytotoxicity at 70.5 h came out at 22.2%.
Take `O=C(Cc1ccsc1)N1CCN(CC2CC2)c2ncccc2C1`: the cytotoxicity at 70.5 h was -14%.
`CN(C)C(=O)CN1CCC2(CCCN(Cc3cccs3)C2)C1=O` (stereo not given): the cytotoxicity at 70.5 h was -12.9%.
To `Cc1occc1C(=O)N1Cc2nccn2CC(CN2CCCC2)C1` (stereo not given) belongs -14.1%.
In the case of `CC(C)NC(=O)N1CCN(CC2CC2)c2ncccc2C1`, the cytotoxicity at 70.5 h is -15.2%.
Next, `Cc1occc1C(=O)N1Cc2nccn2CC(CN2CCOCC2)C1` (stereo not given): -6.67%; `COCCN1CCCC2(CCN(c3ccsc3)C2=O)C1` (stereo not given): -7.27%.
Next, `O=C(c1ccc(F)cc1)N1CCN2C[C@H](OCc3cccnc3)C[C@H]2C1`: -11%; `CO[C@H]1CCN(S(=O)(=O)c2cccnc2)[C@@H]2CN(CC3CC3)C[C@H]12`: -6.81%.
`CCN1C[C@@H]2[C@@H](OC)CCN(S(=O)(=O)c3cccnc3)[C@@H]2C1`: the cytotoxicity at 70.5 h is -10.5%.
To `CO[C@@H]1CCN(S(=O)(=O)c2cccnc2)[C@@H]2CN(CC3CC3)C[C@@H]21` belongs -8.38%.
In the case of `Cc1ccc(CN2CCOC3(COCCN(C(C)C)C3)C2)o1` (stereo not given), the cytotoxicity at 70.5 h is -12.3%.
With `Cc1ccc(CN2CCCn3nnc(COCCN(C)C)c3C2)s1`, the cytotoxicity at 70.5 h is -16%.
To `Cn1cccc1C(=O)NCc1cn2c(n1)CN(Cc1ccccn1)CC2` belongs -13.2%.
Next, `Cc1ncsc1CN1C[C@@H]2COC[C@]2(C(=O)NCc2ccccn2)C1`: -9.2%; `Cc1ncsc1CN1C[C@@H]2COC[C@]2(C(=O)NCc2cccnc2)C1`: -14.8%; `c1cncc(CN2CCCn3nnc(COCC4CC4)c3C2)c1`: -9.26%.
To `Fc1cccc(N2CCCC3(CN(Cc4ccco4)CCO3)C2)c1` (stereo not given) belongs -11.7%.
As to `Cc1ccc2c(n1)N(CCN(C)C)CCN(C(=O)c1ccoc1)C2`, the cytotoxicity at 70.5 h is -11.8%.
To `Cn1cc(CN2CC[C@H]3O[C@@H](COCc4cccnc4)CC[C@H]32)cn1` belongs -12%; to `Cn1cc(CN2CCOC3(CCCN(c4cccc(F)c4)C3)C2)cn1` (stereo not given), -7.93%; to `Cc1ccc(CN2CCOC3(CCCN(c4cccc(F)c4)C3)C2)o1` (stereo not given), -6.42%.
In the case of `Fc1ccc(CN2CC[C@H]3O[C@@H](COCc4cccnc4)CC[C@H]32)cc1`, the cytotoxicity at 70.5 h was -6.39%.
To `c1ccc(COC[C@H]2CC[C@H]3[C@H](CCN3Cc3cccs3)O2)nc1` belongs -3.77%.
Next, `CCCC(=O)N1CCN(CCN(C)C)c2nc(C)ccc2C1`: -2.97%; `c1ccc(COC[C@H]2CC[C@H]3[C@H](CCN3Cc3cccnc3)O2)nc1`: 9.23%; `COc1ccc(CN2C[C@@H]3COC[C@@H](N4CCN(C)CC4)[C@@H]3C2)cc1`: 0.325%.

The values are drawn from ChEMBL document CHEMBL3507680, “University of Dundee, Gates Library screen for HepG2 cell viability”.
